The values below come from patent US10143638B2, “Method of treating skin with ingenol mebutate” (LEO Laboratories Limited, priority 2009, dated 2018).

Data set [1] has as its system dermal fibroblasts. Briefly: Hyaluronan synthesis by dermal fibroblasts (Hyaluronic Acid Quantitative Test Kit). Type of data set: cell-based, human. The text has this:
(§1) A normal adult skin biopsy (6 mm) was obtained (n=1), with informed consent, from an individual attending the Oral Surgery Clinic, School of Dentistry, Wales College of Medicine, Cardiff. Following the application of a local anaesthetic, the dermal biopsy was collected and adult dermal fibroblast cultures established by single cell suspension technique, following enzymic degradation of the specimen. This technique has previously been reliably used to establish viable primary cultures of both oral and dermal fibroblasts in vitro (Cook et al, 2000; Stephens et al, 2001; 2003). Dermal fibroblasts were cultured in Fibroblast-Serum Containing Medium, containing Dulbecco's Modified Eagle's Medium (DMEM), supplemented with L-glutamine (2 mM), antibiotics (100 U/ml) penicillin G sodium, […] streptomycin sulphate and 0.25 μg/ml amphotericin B) and 10% foetal calf serum (all purchased from Invitrogen Ltd., Paisley, U.K.). Dermal fibroblast cultures were maintained at 37° C., in a 5% CO2/95% air atmosphere, with the culture medium being changed every 2-3 days. Dermal fibroblasts were used between) passage 7-17, for all experiments.
Following trypsinization, dermal fibroblasts were seeded in 24-well tissue culture plates in PEP005-free, Fibroblast-Serum Containing Medium (1 ml), at a cell density of 2.5×10^4 cell/well. Dermal fibroblasts were maintained at 37° C., in a 5% CO2/95% air atmosphere, for 48 h, prior to maintenance in serum-free, Fibroblast-Serum Containing Medium (1 ml), for a further 48 h. At this stage, the serum-free, culture medium was replaced with Fibroblast-Serum Containing Medium (600 μl), containing 0 μg/ml, 0.01 μg/ml, 0.1 μg/ml, 1 μg/ml, 10 μg/ml or 100 μg/ml PEP005, +/−TGF-β1 (10 ng/ml) (three culture wells per PEP005 concentration). A control was also established, consisting of cells in serum-free, Fibroblast-Serum Containing Medium, containing 1% DMSO. The dermal fibroblasts were maintained at 37° C., in a 5% CO2/95% air atmosphere, for 24 h or 72 h, prior to culture medium removal. Hyaluronan synthesis in the collected culture media was quantified, using a Hyaluronic Acid Quantitative Test Kit (Corgenix U.K. Ltd., Cambridgeshire, U.K.), which utilizes a naturally occurring bovine binding protein to hyaluronan. Supernatants were assayed, as per manufacturer's instructions, and optical density measured using a spectrophotometer at 450 nm. Hyaluronan concentrations were determined by comparing the absorbance of the sample against a reference curve prepared from the reagent blank and standards. Each experiment was performed on three separate occasions.

Data set [2] concerns HAS1. Briefly: HAS1 gene expression by dermal fibroblasts (qPCR). Type of data set: cell-based, human.
Source text: as §1
Following trypsinization, dermal fibroblasts were seeded in 24-well tissue culture plates, in PEP005-free, Fibroblast-Serum Containing Medium (1 ml), at a cell density of 2.5×10^4 cell/well. Dermal fibroblasts were maintained at 37° C., in a 5% CO2/95% air atmosphere, overnight. At this stage, the culture medium was replaced with Fibroblast-Serum Containing Medium (600 μl), containing 0 μg/ml, 0.01 μg/ml, 0.1 μg/ml, 1 μg/ml, 10 μg/ml or 100 μg/ml PEP005, +/−TGF-β1 (10 ng/ml) (three culture wells per PEP005 concentration). A control was also established, consisting of cells in Fibroblast-Serum Containing Medium, containing 1% DMSO. The dermal fibroblasts were maintained at 37° C., in a 5% CO2/95% air atmosphere, for 24 h or 72 h, prior to washing in PBS (3×1 ml) and Trizol® Reagent (250 μl) added to the cells, for 5 min at room temperature, to induce cell lysis. RNA was extracted by the phenol-chloroform method, as described above, while a cDNA library was generated via random hexamer RT, as described above. RNA (1 μg) was added to 100 µM random hexamer (1 μl), 5×RT Buffer (4 μl), 2.5 mM Deoxynucleoside Triphosphates (dNTPs, 5 μl), 2 μl DTT and Nuclease-Free Water, were added to the reaction (total volume, 20 μl). To denature the RNA, reaction tubes were placed in a GeneAmp PCR System 9700 (Applied Biosystems, Cheshire, U.K.) and heated for 5 min/95° C., prior to cooling to 4° C. Superscript (1 μl) and RNAsin® Ribonuclease Inhibitor (1 μl, Promega, Hampshire, U.K.) were added to each tube, and the tubes subjected to […] at 20° C. for 10 min, 42° C. for 1 h and 95° C. for 5 min, prior to storage at 4° C., until required. As a negative control, RT was also performed, with Nuclease-Free Water replacing the RNA sample.
qPCR was performed, as described above, with the probe and primers for HAS1, HAS2 and HAS3 (target genes) and the 18s ribosomal RNA (reference gene), designed and supplied by Applied Biosystems. PCR was performed in a final volume of 20 μl/sample, with each reaction mix consisting of cDNA (1 μl), target gene primers and probe (1 μl), Taqman® FAST Universal PCR Master Mix (10 μl, Applied Biosystems), and Nuclease-Free Water (8 μl). PCR amplification was performed, using an initial cycle of 95° C. for 1 s, followed by 40 cycles of 60° C. for 20 s. A cDNA-free control was also included. Again, the comparative CT method was used for relative quantification of gene expression. Each experiment was performed on three separate occasions.

A short description of data set [3]: Stability of PEP005/DMSO stock solution. The following applies: 10 mg/ml in DMSO, stored at 4° C. The data set is classed as physicochemical. On the procedure:
PEP005, obtained from Peplin in 20 mg batches, was stored at 4° C. When required, the PEP005 was solubilized in dimethyl sulphoxide (DMSO, >99.9%, Sigma Chemical Company, Dorset, U.K.), at a concentration of 10 mg/ml. […] Prior to use, the PEP005/DMSO stock solution was removed from 4° C. storage and warmed to room temperature. The required volumes of PEP005/DMSO were aliquoted into a poly-propylene vessel and the PEP005/DMSO diluted to the required concentration (typically 0.01 μg/ml, 0.1 μg/ml, 1 μg/ml, 10 μg/ml and 100 μg/ml) in Fibroblast-Serum Containing Medium (for dermal fibroblast cultures, Section 3.1), with fresh PEP005/culture medium solutions being prepared daily, at the various concentrations above, due to solution stability. Prior to discarding PEP005/culture medium solutions, at least two volumes of 0.1% sodium hydroxide (Sigma Chemical Company), in 95% ethanol/5% methanol (both from Thermo Fisher Scientific, Leicestershire, U.K.), was added to each solution, to deactivate.

In the case of `C/C=C(/C)C(=O)O[C@H]1C(C)=C[C@]23C(=O)[C@@H](C=C(CO)[C@@H](O)[C@]12O)[C@H]1[C@@H](C[C@H]3C)C1(C)C` [PEP005, ingenol-3-angelate], the hyaluronan synthesis result in data set [1] (PEP005 0.01-10 μg/ml, absence of TGF-β1, 24 h, compared to untreated controls) is “significant, stimulatory effect”; in data set [1] (PEP005 0.01-100 μg/ml, absence of TGF-β1, 72 h, compared to untreated controls), “significant, stimulatory effect”; in data set [1] (PEP005 plus TGF-β1 (10 ng/ml), 24 h, compared to untreated controls and to PEP005 without TGF-β1), “significant, synergistic effect”. For the same compound, the HAS1 expression entry is listed as “general down-regulation” in data set [2] (PEP005 0.01-100 μg/ml plus TGF-β1 (10 ng/ml), 24 h, p<0.05 at 0.01 μg/ml, p<0.01 at 100 μg/ml); “general down-regulation” in data set [2] (PEP005 0.01-100 μg/ml plus TGF-β1 (10 ng/ml), 72 h, non-significant (p>0.05)); “no obvious effects” in data set [2] (PEP005, absence of TGF-β1, 24 h); “no obvious effects” in data set [2] (PEP005, absence of TGF-β1, 72 h). The “stability of PEP005/DMSO stock solution” value in data set [3] is on record as “stable for several months”.
